Laboratory results published in article PMC3446790 (Cellular signalling, 2010).
Entries after “also recorded” stand apart in the source; their conditions may differ.

Key:
[1] = target: T1, S1P1 (Homo sapiens, UniProt P21453); assay: Ca2+ mobilization; assay type: cell-based; settings: Ca2+ mobilization, concentrations up to 10 μM
[2] = target: T2, S1P2 (Homo sapiens, UniProt O95136); assay: Ca2+ mobilization; assay type: cell-based; settings: concentrations up to 10 μM
[3] = target: T3, S1P3 (Homo sapiens, UniProt Q99500); assay: Ca2+ mobilization; assay type: cell-based; settings: Ca2+ mobilization, concentrations up to 10 μM
[4] = target: T4, S1P4 (Homo sapiens, UniProt O95977); assay: Ca2+ mobilization; assay type: cell-based; settings: Ca2+ mobilization, concentrations up to 10 μM
T4 sequence (O95977 1-384): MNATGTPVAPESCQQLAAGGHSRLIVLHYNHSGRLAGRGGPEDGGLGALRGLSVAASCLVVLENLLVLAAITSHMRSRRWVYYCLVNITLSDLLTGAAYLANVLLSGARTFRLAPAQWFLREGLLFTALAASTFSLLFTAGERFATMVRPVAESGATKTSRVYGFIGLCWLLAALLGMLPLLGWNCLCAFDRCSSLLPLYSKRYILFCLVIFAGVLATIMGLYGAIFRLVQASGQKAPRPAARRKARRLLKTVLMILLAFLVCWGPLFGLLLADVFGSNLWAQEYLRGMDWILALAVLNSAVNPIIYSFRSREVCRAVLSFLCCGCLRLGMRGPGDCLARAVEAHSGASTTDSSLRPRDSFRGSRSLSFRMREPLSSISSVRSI

[5] = target: T5, S1P5 (Homo sapiens, UniProt Q9H228); assay: Ca2+ mobilization; assay type: cell-based; settings: concentrations up to 10 μM
[6] = target: T1, S1P1; assay: Antagonism of S1P-induced Ca2+ mobilization in S1P1-expressing HTC4 cells; assay type: cell-based
[7] = target: T2, S1P2; assay: Antagonism of S1P-induced Ca2+ mobilization in S1P2-expressing HTC4 cells; assay type: cell-based
[8] = target: T3, S1P3; assay: Antagonism of S1P-induced Ca2+ mobilization in S1P3-expressing HTC4 cells; assay type: cell-based
[9] = target: T4, S1P4; assay: Antagonism of S1P-induced Ca2+ mobilization in S1P4-expressing HTC4 cells; assay type: cell-based
[10] = target: T5, S1P5; assay: Antagonism of S1P-induced Ca2+ mobilization in S1P5-expressing HTC4 cells; assay type: cell-based
[11] = target: P2Y10/Gα16 (Homo sapiens, UniProt O00398+P30679); assay: Antagonism of S1P-induced Ca2+ mobilization in CHO cells expressing P2Y10/Gα16; assay type: cell-based
[12] = target: T1, S1P1; assay: Receptor desensitization assay in S1P1-expressing HTC4 cells; assay type: cell-based; settings: 300 nM, 2 h preincubation
[13] = target: S1P1-eGFP (Homo sapiens, UniProt P21453); assay type: cell-based; settings: 100 nM, 30 min, HEK293
[14] = target: recombinant ATX (Homo sapiens, UniProt Q13822); assay: ATX assay; assay type: biochemical; settings: FS-3 substrate
[15] = system: C57BL/6 mice; assay: Whole blood lymphocyte counting in mice; assay type: in vivo; settings: 1 mg/kg intraperitoneal
[16] = system: IEC-6 cells; assay: DNA fragmentation ELISA, camptothecin-induced apoptosis; assay type: cell-based, rat
[17] = system: ERK1/2 and AKT in IEC-6 cells; assay: Immunoblot analysis of ERK1/2 and AKT phosphorylation; assay type: cell-based, rat
[18] = system: LPA1,2,3,4,5 and GPR87; assay: Ca2+ mobilization in cells transfected with LPA receptors; assay type: cell-based; settings: data not shown
[19] = system: sphingosine kinase 1; settings: cited from earlier work
[20] = shift of S1P dose response curve

T3 sequence (Q99500 whole entry, species assumed): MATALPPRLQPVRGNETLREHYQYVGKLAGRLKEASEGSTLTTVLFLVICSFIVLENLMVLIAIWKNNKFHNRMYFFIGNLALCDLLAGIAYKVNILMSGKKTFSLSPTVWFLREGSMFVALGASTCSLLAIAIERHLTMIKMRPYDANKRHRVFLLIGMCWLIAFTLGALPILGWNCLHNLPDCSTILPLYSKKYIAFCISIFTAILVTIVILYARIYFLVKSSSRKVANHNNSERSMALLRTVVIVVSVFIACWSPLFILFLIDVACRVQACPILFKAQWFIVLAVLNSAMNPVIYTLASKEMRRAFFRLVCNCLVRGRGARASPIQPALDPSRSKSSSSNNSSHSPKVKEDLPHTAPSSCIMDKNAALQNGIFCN
T2 sequence (O95136 whole entry, species assumed): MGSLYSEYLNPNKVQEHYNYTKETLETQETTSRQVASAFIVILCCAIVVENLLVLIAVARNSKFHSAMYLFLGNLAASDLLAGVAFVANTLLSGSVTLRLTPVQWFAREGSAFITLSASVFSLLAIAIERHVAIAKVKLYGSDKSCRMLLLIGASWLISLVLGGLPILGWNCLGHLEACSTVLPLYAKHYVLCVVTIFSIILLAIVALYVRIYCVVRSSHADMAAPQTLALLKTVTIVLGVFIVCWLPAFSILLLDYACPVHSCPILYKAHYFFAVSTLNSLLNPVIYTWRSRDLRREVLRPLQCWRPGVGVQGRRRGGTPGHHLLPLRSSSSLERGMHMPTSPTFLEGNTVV
T5 sequence (Q9H228 whole entry, species assumed): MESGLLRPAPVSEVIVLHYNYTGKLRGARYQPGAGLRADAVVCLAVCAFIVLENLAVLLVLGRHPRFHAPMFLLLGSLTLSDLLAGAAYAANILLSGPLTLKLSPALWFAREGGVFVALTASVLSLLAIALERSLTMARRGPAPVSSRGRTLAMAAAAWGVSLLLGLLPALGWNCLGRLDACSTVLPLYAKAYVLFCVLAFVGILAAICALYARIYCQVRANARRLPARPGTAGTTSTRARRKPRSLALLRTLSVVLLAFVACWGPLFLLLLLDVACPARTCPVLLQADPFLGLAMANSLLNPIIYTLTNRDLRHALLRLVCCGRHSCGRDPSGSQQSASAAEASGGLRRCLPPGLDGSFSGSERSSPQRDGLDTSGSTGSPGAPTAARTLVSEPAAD

CCCCCCCCc1ccc(CC[C@](N)(/C=C/P(=O)(O)O)CO)cc1 [(S)-ene, (S)-FTY720-vinylphosphonate]
S1P1 activation, agonist character (in words) [1]: did not activate
S1P2 activation (in words) [2]: failed to activate
S1P3 activation (in words) [3]: inactive
S1P4 activation (in words) [4]: failed to activate
S1P5 activation (in words) [5]: failed to activate
antagonist character at S1P1 ([6]; S1P near EC70): full antagonist
pKb, S1P1 (Schild analysis) ([6]; average residual error 1.09): 7.10 M
Ki ([6]; read-out: Ki, S1P1, cotreated with 3 nM S1P, ± SD): 384 nM
mechanism of antagonism, S1P1 [6, 20]: competitive inhibition
antagonist character at S1P2 ([7]; S1P near EC70): partial antagonist
maximal % inhibition of the S1P response, S1P2 ([7]; at 30, 30 nM S1P): 40.0% inhibition at 30 mM (30 nM S1P)
antagonist character at S1P3 ([8]; S1P near EC70): full antagonist
pKb, S1P3 (Schild analysis) ([8]; average residual error 0.62): 7.61 M
Ki ([8]; read-out: Ki, S1P3, cotreated with 10 nM S1P, ± SD): 39 nM
mechanism of antagonism, S1P3 [8, 20]: competitive inhibition
antagonist character at S1P4 ([9]; S1P near EC70): full antagonist
Ki ([9]; read-out: Ki, S1P4, cotreated with 5 nM S1P, ± SD): 1190 nM
antagonist character at S1P5 ([10]; S1P near EC70): partial antagonist
maximal % inhibition of the S1P response, S1P5 ([10]; at 30, 30 nM S1P): 60.0% inhibition at 30 mM (30 nM S1P)
inhibition of the S1P response, P2Y10 ([11]; 300 nM S1P): No inhibition at 30 mM (300 nM S1P)
inhibitory effect on P2Y10 when co-applied with S1P ([11]; concentrations up to 30 μM): no inhibitory effect
desensitization of the S1P1 response to S1P after preincubation [12]: almost no effect; also recorded: did not induce
S1P1-eGFP receptor internalization [13]: failed to cause redistribution; also recorded: did not induce; also recorded: failed to cause receptor internalization
mechanism of ATX inhibition [14]: competitive
Ki ([14]; read-out: Ki, ATX, affinity for free enzyme): 1000 nM
decrease in circulating lymphocytes ([15]; 6 h): approximately 20%
circulating lymphocyte counts at 24 h ([15]; 24 h): restored to pretreatment levels; also recorded: no significant decrease
effect of PTX treatment on the antiapoptotic action ([16]; 100 ng/mL PTX overnight, 300 nM compound): partially inhibited
concentration of maximal protection against DNA fragmentation ([16]; 20 μM camptothecin 5 h, inverse bell-shape curve): 300 nM
reduction in DNA fragmentation elicited by camptothecin ([16]; 15 min pretreatment, 20 μM camptothecin 5 h): significant and dose-dependent reduction
attenuation of DNA fragmentation at concentrations above 1 μM ([16]; above 1 μM): no longer showed an attenuation
effect of overnight PTX treatment on ERK1/2 activation ([17]; 100 ng/mL PTX, S1P 300 nM 5 min, (S)- or (R)-ene 1 μM 10 min): no significant effect
time of peak ERK1/2 and AKT phosphorylation ([17]; IEC-6 cells): 5 to 15 min
ERK1/2 and AKT phosphorylation ([17]; IEC-6 cells, 100 nM): elicited ERK1/2 and AKT phosphorylation
Ca2+ mobilization responses in cells transfected with LPA receptors [18]: unable to detect
inhibition of sphingosine kinase 1 [19]: inhibitor
